According to patent US20200216439A1, “HETERO-1,5,6,7-TETRAHYDRO-4H-INDOL-4-ONES” (BAYER PHARMA AKTIENGESELLSCHAFT, priority 2015, published 2020):

Target: T1, catalytic domain of human Bub1 (amino acids 704-1085) (Homo sapiens, UniProt O43683)
T1 construct: catalytic domain of human Bub1 (amino acids 704-1085); His6 (N); made in house; host or cells: Hi5 insect cells
Assay: Bub1 kinase assay (TR-FRET)
Assay type: biochemical
Details: TR-FRET; ATP 10 μM, peptide substrate 1 μM; 60 min at 22° C.; average or median if tested more than once; read-out: Inhibition of Bub1 kinase IC50
Summary of the method: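 Eleven concentrations (0.1 nM–20 μM, duplicate) fitted by 4-parameter logistic for IC50. Read-out: EDTA-stopped TR-FRET (665/620 nm) detecting anti-phosphoserine binding to biotin-peptide (1 μM). Reaction used 10 μM ATP, 60 min at 22 °C, after 15 min compound preincubation with His-tagged human Bub1 704-1085.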

T1 sequence (O43683 704-1085): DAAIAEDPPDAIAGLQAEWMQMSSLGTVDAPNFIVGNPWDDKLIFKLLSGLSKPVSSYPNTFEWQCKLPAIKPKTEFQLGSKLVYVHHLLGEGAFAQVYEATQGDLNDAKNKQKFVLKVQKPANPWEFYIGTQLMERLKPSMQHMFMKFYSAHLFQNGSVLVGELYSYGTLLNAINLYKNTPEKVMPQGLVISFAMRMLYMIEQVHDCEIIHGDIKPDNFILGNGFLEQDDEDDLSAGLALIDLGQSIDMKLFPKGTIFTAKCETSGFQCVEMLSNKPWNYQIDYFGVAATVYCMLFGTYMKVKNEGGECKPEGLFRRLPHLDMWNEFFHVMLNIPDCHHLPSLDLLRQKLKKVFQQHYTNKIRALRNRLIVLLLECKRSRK

| IC50 | Compound |
| --- | --- |
| 58 nM | Cc1ccc(F)cc1C(=O)Nc1cc(-c2[nH]c3c(c2Nc2ccccc2)C(=O)CN(C(=O)OC(C)(C)C)C3)ccn1 [Example 268, tert-Butyl 2-2-[(5-fluoro-2-methylbenzoyl)amino]pyridin-4-yl-4-oxo-3-(phenylamino)-1,4,5,7-tetrahydro-6H-pyrrolo[2,3-c]pyridine-6-carboxylate] |
| 149 nM | Cc1ccc(F)cc1C(=O)Nc1cc(-c2[nH]c3c(c2Nc2ccccc2)C(=O)CNC3)ccn1 [Example 269, 5-Fluoro-2-methyl-N-4-[4-oxo-3-(phenylamino)-4,5,6,7-tetrahydro-1H-pyrrolo[2,3-c]pyridin-2-yl]pyridin-2-ylbenzamide] |
| 37 nM | COc1ccc(C(=O)Nc2cc(-c3[nH]c4c(c3Nc3ccccc3)C(=O)CN(C(=O)OC(C)(C)C)C4)ccn2)cc1 [Example 270, tert-Butyl 2-2-[(4-methoxybenzoyl)amino]pyridin-4-yl-4-oxo-3-(phenylamino)-1,4,5,7-tetrahydro-6H-pyrrolo[2,3-c]pyridine-6-carboxylate] |
| 5 nM | CC(=O)N1CC(=O)c2c([nH]c(-c3ccnc(NC(=O)c4ccc(F)cc4)c3)c2Nc2ccccc2)C1 [Example 271, N-4-[6-Acetyl-4-oxo-3-(phenylamino)-4,5,6,7-tetrahydro-1H-pyrrolo[2,3-c]pyridin-2-yl]pyridin-2-yl-4-fluorobenzamide] |
| 4 nM | CN(C)S(=O)(=O)N1CC(=O)c2c([nH]c(-c3ccnc(NC(=O)[C@@H]4C[C@@H]4F)c3)c2Nc2ccccc2)C1 [Example 272, (1S,2S)—N-4-[6-(Dimethylsulfamoyl)-4-oxo-3-(phenylamino)-4,5,6,7-tetrahydro-1H-pyrrolo[2,3-c]pyridin-2-yl]pyridin-2-yl-2-fluorocyclopropanecarboxamide] |
| 11 nM | CN(C)S(=O)(=O)N1CC(=O)c2c([nH]c(-c3ccnc(NC(=O)C4(F)CC4)c3)c2Nc2ccccc2)C1 [Example 273, N-4-[6-(Dimethylsulfamoyl)-4-oxo-3-(phenylamino)-4,5,6,7-tetrahydro-1H-pyrrolo[2,3-c]pyridin-2-yl]pyridin-2-yl-1-fluorocyclopropanecarboxamide] |
| 10 nM | CC(C)(C)OC(=O)N1CC(=O)c2c([nH]c(-c3ccnc(NC(=O)c4cnn[nH]4)c3)c2Nc2ccccc2)C1 [Example 274, tert-Butyl 4-oxo-3-(phenylamino)-2-2-[(1H-1,2,3-triazol-5-ylcarbonyl)amino]pyridin-4-yl-1,4,5,7-tetrahydro-6H-pyrrolo[2,3-c]pyridine-6-carboxylate] |
| 113 nM | O=C(Nc1cc(-c2[nH]c3c(c2Nc2ccccc2)C(=O)CNC3)ccn1)c1cnn[nH]1 [Example 275, N-4-[4-Oxo-3-(phenylamino)-4,5,6,7-tetrahydro-1H-pyrrolo[2,3-c]pyridin-2-yl]pyridin-2-yl-1H-1,2,3-triazole-5-carboxamide] |
| 7 nM | CN(C)CCOc1cnccc1-c1[nH]c2c(c1Nc1ccccc1)C(=O)CN(C(=O)OC(C)(C)C)C2 [Example 276, tert-Butyl 2-3-[2-(dimethylamino)ethoxy]pyridin-4-yl-4-oxo-3-(phenylamino)-1,4,5,7-tetrahydro-6H-pyrrolo[2,3-c]pyridine-6-carboxylate] |
| 102 nM | CN(C)CCOc1cnccc1-c1[nH]c2c(c1Nc1ccccc1)C(=O)CNC2 [Example 277, 2-3-[2-(Dimethylamino)ethoxy]pyridin-4-yl-3-(phenylamino)-1,5,6,7-tetrahydro-4H-pyrrolo[2,3-c]pyridin-4-one] |
| 23 nM | CC(=O)N1CC(=O)c2c([nH]c(-c3ccncc3OCCN(C)C)c2Nc2ccccc2)C1 [Example 278, 6-Acetyl-2-3-[2-(dimethylamino)ethoxy]pyridin-4-yl-3-(phenylamino)-1,5,6,7-tetrahydro-4H-pyrrolo[2,3-c]pyridin-4-one] |
| 6 nM | CN(C)CCOc1cnccc1-c1[nH]c2c(c1Nc1ccccc1)C(=O)CN(S(=O)(=O)N(C)C)C2 [Example 279, 2-3-[2-(Dimethylamino)ethoxy]pyridin-4-yl-N,N-dimethyl-4-oxo-3-(phenylamino)-1,4,5,7-tetrahydro-6H-pyrrolo[2,3-c]pyridine-6-sulfonamide] |
